Usually AUC(0-inf) stands for total exposure, with the tail of the curve extrapolated. The low end stands for less exposure, the high end for more exposure. By AUC(0-t) is commonly meant the area under the concentration-time curve up to a stated or last time point. A low value points to less exposure. As a reminder, the Tmax is the time from dosing to the highest level. In general, Cmax refers to the maximum level reached in the sampled fluid or tissue.

On the set-up of series [1]: method as in PMID 12076989. Conditions: after co-administration of diltiazem with saxagliptin; cited from earlier work.
The conditions of series [2]: cited from earlier work.
For series [3] the following is noted: independent of total drug concentrations; cited from earlier work.
Series [4] deals with PDE5. Conditions: relative to sildenafil; cited from earlier work.
Details of series [5]: method as in PMID 33459228. As to conditions: cited from earlier work.
Series [6] has as its system isolated aorta rings. Conditions: cited from earlier work.
Series [7] can be described thus: Safety and tolerability: adverse effects, blood pressure, pulse rate in healthy volunteers. Conditions: for incidence of reported headache: 18 volunteers. The series is classed as in vivo, human. Here is the method: (§1) Blood glucose levels were measured for all volunteers on the ninth and the thirteenth day before dosing and at 0.5, 0.75, 1, 1.5, 2, 2.5, 3, 12, and 24 h; the main outcome measures were maximum plasma glucose concentration (Gmax) and the area under the blood glucose concentration–time curve (AUCg0-t). Blood pressure (systolic and diastolic) and heart rate were measured before dosing and at 2, 4, 6, 8, and 10 h after drug administration.
Blood pressure, pulse rate, and body temperature together with blood glucose levels were reported all over the study. Moreover, possible side and/or adverse reactions or events to the study formulations were recorded to assure the safety and tolerability of different drug administrations.

The nature of series [8]: Pharmacodynamic parameters: blood glucose levels (Gmax, AUCg0-t) in healthy volunteers. The series is classed as in vivo, human. Here is the method:
as §1

Series [9] is described as follows: clinical. As to conditions: human, in vivo. As for the experimental part:
Mobile phase composition is 25 mM ammonium acetate: methanol 25:[…]. The flow rate was set at 0.7 ml/min. Injection volume was set at 2.5 ul. […] Before transferring the plasma sample to the MCX cartridge, acidification of the plasma sample with […] of (formic acid 2%) was performed. The sample was washed with 200 ul of 2% formic acid in water followed by 200 ul of methanol. […] Then 350 ul of water was added to the eluent and vortexed. After that, the diluted eluent was transferred to a vial insert, and 2.5 μl was injected into LC/MS/ MS system for analysis. […] The limit of quantification was defined considering the method sensitivity, the precision, and the accuracy. To evaluate precision and accuracy, specific quality control samples were included in the validation procedure. […] Blood samples were collected into tubes containing EDTA disodium as an anticoagulant slightly shaken and centrifuged at approximately 4000 r.p.m. for 10 min. After centrifugation, plasma samples were transferred directly into a 5 ml-plastic tube. These samples were immediately stored at the study site in a freezer at a nominal temperature - 80 °C until analysis. The label of the collecting tubes had the study's code number, subject number, study period, and the designated sample number. […] Pharmacokinetic parameters were determined and calculated. […] The pharmacokinetic analysis was performed using the SAS program. All results were expressed as mean ± SD. Paired T-Test was used to compare results, and the level of significance was considered at (P < 0.05).

For series [10] the following is noted: healthy subjects and patients with type 2 diabetes; cited from earlier work.
Setting [11] is: oral administration, fasting conditions.

Molecules are shown by their SMILES.

Regarding `N#C[C@@H]1C[C@@H]2C[C@@H]2N1C(=O)[C@@H](N)C12CC3CC(O)(CC(O)(C3)C1)C2` [5-hydroxy saxagliptin], in [1], the “decrease of geometric mean AUC0-inf” value is listed as 34% and the “decrease of geometric mean Cmax” value is reported as 43%.

On to `CCCc1nn(C)c2c(=O)[nH]c(-c3cc(S(=O)(=O)N4CCNCC4)ccc3OCC)nc12` [N-desmethyl metabolite], for which, in series [2], the “plasma concentrations relative to those found for sildenafil” value is “approximately 40%” and the “terminal half-life (t1/2)” value is “approximately 4 h”. For the same molecule, the “bound to plasma proteins” value in [3] is on record as 96%. For the same molecule, the “in vitro potency for PDE5 relative to the parent drug” value in series [4] is “approximately 50%”.

Regarding `N#C[C@@H]1C[C@@H]2C[C@@H]2N1C(=O)[C@@H](N)C12CC3CC(CC(O)(C3)C1)C2` [saxagliptin], the “overall systemic exposure to saxagliptin [AUCs]” value in [5] (co-administration of simvastatin 40 mg) is “not affected”. For the same molecule, the “effect on CYP3A4 activity” value in series [5] (concluded from simvastatin pharmacokinetics at steady state) is “neither induces nor inhibits CYP3A4 activity”. For the same molecule, in [6], the “rise of NO/ONOO- rate” value is “about 40%” and the “stimulation of NO release” value is given as “about 18%”. Moreover, in series [7] (after co-administration of saxagliptin and sildenafil vs alone (P > 0.001)), the “blood pressure and pulse rate” value is reported as “comparable”. The “incidence of reported headache” value in series [7] (co-administration of saxagliptin 5 mg and sildenafil 50 mg) was 44.4%. Also, the “incidence of reported headache” value in [7] (drug administered alone) is listed as 0%. In series [8] (saxagliptin 5 mg + sildenafil 50 mg co-administered), the “maximum glucose concentration (Gmax)” value was determined as 95.6 mg/dL. The “maximum glucose concentration (Gmax)” value in series [8] (saxagliptin 5 mg multiple doses alone) turned out to be 93.7 mg/dL. In [9] (5 mg), the area under the curve AUC(0-inf) worked out at 113 ng·h/mL, the AUC(0-t) stood at 112 ng·h/mL and the Tmax came out at 1.24 h. Further, in series [10], the mean half-life is 2.2 to 3.8 h and the “time to reach maximal plasma concentration” value is given as less than 2 h.

Consider `CCCc1nn(C)c2c(=O)[nH]c(-c3cc(S(=O)(=O)N4CCN(C)CC4)ccc3OCC)nc12` [sildenafil], for which the “incidence of reported headache” value in series [7] (drug administered alone) is reported as 33.3%. In series [2], the “absolute oral bioavailability, range” value is listed as 25–63%; the “mean absolute oral bioavailability” value is given as 41%; the “mean steady-state volume of distribution” value was 105 L; the “terminal half-life (t1/2)” value was 3 to 5 h. In addition, the total body clearance in [2] is on record as 41 L/h. Further, in series [2] (setting [11]), the “median time to Cmax” value is reported as 60 min and the “time to maximum observed plasma concentration (Cmax)” value is 30 to 120 min. In series [9] (50 mg), the AUC(0-t) was 977 ng·h/mL, the maximum concentration (Cmax) was 302 ng/mL and the Tmax came out at 0.977 h.
